Results reported in ChEMBL document CHEMBL5614431, “Discovery of 1,3,4-oxadiazoles with slow-action activity against Plasmodium falciparum malaria parasites” (Eur J Med Chem, 2024).
pIC50: −log10 of the molar value.

Legend:
[1] = Cytotoxicity against human NFF cells assessed as reduction in cell viability incubated for 72 hrs by SRB assay; format: toxicity, cell-based
[2] = Selectivity ratio of IC50 for antimalarial activity against synchronous ring stage Plasmodium falciparum 3D7 infected in human Erythrocyte assessed as inhibition of parasite growth incubated for 48 hrs by [3H]-hypoxanthine incorporation assay to IC50 for antimalarial activity against synchronous ring stage Plasmodium falciparum 3D7 infected in human Erythrocyte assessed as inhibition of parasite growth incubated for 48 hrs by [3H]-hypoxanthine incorporation assay; format: functional
[3] = Selectivity index, ratio of IC50 for cytotoxicity against human NFF cells to IC50 for antimalarial activity against synchronous ring stage Plasmodium falciparum 3D7 infected in human Erythrocyte assessed as inhibition of parasite growth incubated for 96 hrs; format: toxicity, cell-based; settings: read-out: Ratio IC50
Plasmodium falciparum [4] = experiment: Antimalarial activity against synchronous ring stage Plasmodium falciparum 3D7 infected in human Erythrocyte assessed as inhibition of parasite growth incubated for 48 hrs by [3H]-hypoxanthine incorporation assay; format: functional, organism-based; settings: 3D7, Erythrocyte
Plasmodium falciparum [5] = experiment: Antimalarial activity against synchronous ring stage Plasmodium falciparum 3D7 infected in human Erythrocyte assessed as inhibition of parasite growth incubated for 96 hrs by [3H]-hypoxanthine incorporation assay; format: functional, organism-based; settings: 3D7, Erythrocyte

Structure (SMILES)	IC50 at 72 h [1]	Ratio IC50 [2]	selectivity ratio at 96 h [3]	pIC50 (Plasmodium falciparum [4])	pIC50 (Plasmodium falciparum [5])
O=S(=O)(CC1CCCC1)c1nnc(N2CCOCC2)o1	> 100 µM	>16	> 158	< 5.00	6.19
CC1CN(c2nnc(S(=O)(=O)C3CCCCC3)o2)CCO1 (racemic)	> 100 µM	>66	> 263	< 4.60	6.42
CC1(C)CN(c2nnc(S(=O)(=O)C3CCCCC3)o2)CCO1	> 100 µM	>105	> 417	< 4.60	6.62
O=S(=O)(c1nnc(N2CCCCO2)o1)C1CCCCC1	–	0.4	–	5.08	4.74
O=S(=O)(c1nnc(N2CCC(c3ccccc3)CC2)o1)C1CCCCC1	–	>7	–	< 4.00	4.87
CC1CC(C)CN(c2nnc(S(=O)(=O)C3CCCCC3)o2)C1 (mixture of isomers)	> 100 µM	>403	> 4000	< 4.90	7.52
O=S(=O)(c1nnc(N2CC3CCC(C2)O3)o1)C1CCCCC1	> 100 µM	>500	> 1000	< 4.30	7.00
CN1CCN(c2nnc(S(=O)(=O)C3CCCCC3)o2)CC1	–	>19	–	< 4.00	5.27
O=S(=O)(c1nnc(N2CCC(C(F)(F)F)CC2)o1)C1CCCCC1	> 100 µM	61	> 270	4.66	6.43
O=S(=O)(c1nnc(N2CCOCC2)o1)C1CCCC1	–	>9	–	< 4.30	5.24
C[C@@H]1CN(c2nnc(S(=O)(=O)C3CCCCC3)o2)C[C@H](C)O1	> 100 µM	>85	> 345	< 4.60	6.54
CC(C)(C)OC(=O)N1CCC(S(=O)(=O)c2nnc(N3CCOCC3)o2)CC1	> 100 µM	>5	> 20	< 4.60	5.30
CC1CCN(c2nnc(S(=O)(=O)C3CCCCC3)o2)CC1	> 50 µM	182	> 227	4.41	6.66
CC(C)(C)CS(=O)(=O)c1nnc(N2CCOCC2)o1	> 100 µM	>8	> 79	< 5.00	5.87
CC(C)(C)OC(=O)[C@@H]1CCCN1c1nnc(S(=O)(=O)C2CCCCC2)o1	> 100 µM	>9	> 38	< 4.60	5.58
Cc1ccc(C)c(C[S+]([O-])c2nnc(N3CCOCC3)o2)c1 (stereo unspecified)	–	1	–	4.77	4.86
CC(=O)N1CCN(c2nnc(S(=O)(=O)C3CCCCC3)o2)CC1	> 100 µM	>34	> 69	< 4.30	5.84
Cc1ccc(C)c(CSc2nnc(N3CCOCC3)o2)c1	–	–	–	< 4.30	< 4.30
O=S(=O)(c1nnc(N2C3CCC2COC3)o1)C1CCCCC1	> 100 µM	>34	> 270	< 4.90	6.43
CCOC(=O)C1CCCN(c2nnc(S(=O)(=O)C3CCCCC3)o2)C1 (racemic)	> 100 µM	>27	> 111	< 4.60	6.03
O=S(=O)(c1nnc(N2CCC(F)(F)CC2)o1)C1CCCCC1	> 100 µM	>17	> 127	< 4.90	6.14
O=S(=O)(c1nnc(N2CCOCC2)o1)C1CC2CCC1C2 (racemic)	> 100 µM	>36	> 377	< 5.00	6.55
O=S(=O)(c1nnc(N2CC3CC2CO3)o1)C1CCCCC1 (racemic)	> 100 µM	>32	> 63	< 4.30	5.80
O=S(=O)(c1nnc(N2CCOc3ccccc32)o1)C1CCCCC1	21.4 µM	2.3	10	5.33	5.69
O=S(=O)(c1nnc(N2C3CCCC2CC3)o1)C1CCCCC1	> 100 µM	>61	> 246	< 4.60	6.39
O=S(=O)(c1nnc(N2CC3CCC2C3)o1)C1CCCCC1 (racemic)	> 100 µM	>45	> 179	< 4.60	6.25
O=S(=O)(c1ccc(Cl)c(Cl)c1)c1nnc(N2CCOCC2)o1	–	0.5	–	4.88	4.61

Structure (SMILES)	IC50 at 72 h [1]	Ratio IC50 [2]	selectivity ratio at 96 h [3]	pIC50 (Plasmodium falciparum [4])	pIC50 (Plasmodium falciparum [5])
CC1(C)CCN(c2nnc(S(=O)(=O)C3CCCCC3)o2)CC1	> 100 µM	>171	> 1080	< 4.60	6.82
O=S(=O)(c1nnc(N2CCC3(CC2)OCCO3)o1)C1CCCCC1	> 100 µM	>56	> 111	< 4.30	6.05
O=S(=O)(c1nnc(N2CCCC2)o1)C1CCCCC1	> 100 µM	>14	> 28	< 4.30	5.45
N#CC1CCN(c2nnc(S(=O)(=O)C3CCCCC3)o2)CC1	> 100 µM	>21	> 200	< 5.00	6.31
O=S(=O)(c1nnc(N2CCC3(CCCO3)CC2)o1)C1CCCCC1	> 100 µM	>65	> 135	< 4.30	6.11
COC1CCN(c2nnc(S(=O)(=O)C3CCCCC3)o2)CC1	> 100 µM	>72	> 145	< 4.30	6.16
CC1(C)CCCN(c2nnc(S(=O)(=O)C3CCCCC3)o2)C1	> 100 µM	527	> 2500	4.68	7.40
O=S(=O)(c1nnc(N2CCOCC2)o1)C1CCOCC1	> 100 µM	>7	> 14	< 4.30	5.15
CC1CCCCN1c1nnc(S(=O)(=O)C2CCCCC2)o1 (racemic)	> 100 µM	>40	> 277	< 4.90	6.51
O=S(=O)(c1nnc(N2CCCC3(COC3)C2)o1)C1CCCCC1	> 100 µM	>93	> 185	< 4.30	6.27
O=S(=O)(CC12CC3CC(CC(C3)C1)C2)c1nnc(N2CCCCC2)o1	30.5 µM	35	76	4.86	6.40
O=S(=O)(CC1(C(F)(F)F)CC1)c1nnc(N2CCOCC2)o1	–	>4	–	< 4.90	5.50
O=S(=O)(CC1CCCCC1)c1nnc(N2CCOCC2)o1	59 µM	45	151	4.76	6.41
O=S(=O)(c1nnc(N2C3CCC2CC3)o1)C1CCCCC1	33.5 µM	7	40	5.24	6.08
O=S(=O)(Cc1ccc(Cl)c(Cl)c1)c1nnc(N2CCOCC2)o1	–	1.6	–	5.18	5.38
O=S(=O)(c1nnc(N2CC3(CCOCC3)C2)o1)C1CCCCC1	> 100 µM	>476	> 909	< 4.30	6.96
O=S(=O)(CC1(C(F)(F)F)CCC1)c1nnc(N2CCOCC2)o1	–	4	–	4.77	5.37
O=S(=O)(c1nnc(N2CCN(CC(F)(F)F)CC2)o1)C1CCCCC1	–	>11	–	< 4.60	5.63
O=S(=O)(c1nnc(N2CCNCC2)o1)C1CCCCC1	–	16	–	4.24	5.45
O=S1(=O)CCN(c2nnc(S(=O)(=O)C3CCCCC3)o2)CC1	–	>4	–	< 4.60	5.17
O=S(=O)(c1nnc(N2CCOCC2)s1)C1CCCCC1	–	–	–	< 4.30	< 4.30
O=S(=O)(c1nnc(N2CCCOCC2)o1)C1CCCCC1	> 100 µM	>134	> 133	< 4.00	6.12
O=S(=O)(c1nnc(N2CCCCC2)o1)C1CCCCC1	> 100 µM	>32	> 250	< 4.90	6.40
Cl.O=S(=O)(c1nnc(N2CCOCC2)o1)C1CCNCC1	–	1	–	< 4.30	< 4.30
O=S(=O)(c1nnc(N2CCc3ccccc32)o1)C1CCCCC1	> 25 µM	>9	> 26	< 5.00	5.95
CC(C)(C)OC(=O)N1CCN(c2nnc(S(=O)(=O)C3CCCCC3)o2)CC1	–	>18	–	< 4.30	5.56
